Experiment: Popcorn Polymer Glass Tube Reaction Test Method
Settings: total additive 250 ppm, 60°C, 14 to 28 days
Method: The Popcorn Polymer Glass Tube Reaction Method allows for the evaluation of many samples at once, and may be described as follows: • 1. Obtain butadiene popcorn polymer "seeds" (in the Examples of this invention the seeds were obtained in 1996 from a BD holding tank). Activate popcorn polymer "seeds" overnight with a 150 watt flood lamp. The "seeds" are firstplaced in a petri dish and covered. Then they are exposed to white light from the lamp for approximately 20 hours. The lamp is positioned 12 inches (30.5 cm) above the dish. • 2. To glass reaction vessels add 1 ml of deionized water. To the glass reaction vessel and water place approximately 0.6200 gms of BD popcorn "seed". Add inhibitor, if any, into the water and seal the reaction vessel with a TEFLON adapter. Completely seal off the adapter by use of a metal adapter plug. Using a gas-tight syringe, inject 15mls of butadiene monomer into the reaction vessel by way of a septum port located at the top of the TEFLON adapter. • 3. Next, place the reaction vessel containing BD popcorn "seed" and butadiene monomer into a block incubator bath which is capable of maintaining a constant temperature of 60°C. Allow the test to run for 14 to 28 days. Remove the reaction vessel from the incubator bath. • 4. Vent the BD out of the vessel by slowly opening the metal adapter plug. Slowly open the reaction vessel and decant the water/BD mixture. Rinse the wet polymer with n-heptane until most of the n-heptane is essentially clear of haze. Blow dry nitrogen into the reaction vessel to further dry the poly-mer. Remove the popcorn polymer carefully with tweezers and spatula and place in a 100 ml beaker. Wash the popcorn polymer material three times with 30 ml aliquots of n-heptane. • 5. Transfer the popcorn polymer sample into a petri dish. Place dish into a vacuum oven. Dry sample at 212°F (100°C) under a 30 mmHg vacuum for 30 minutes. Remove dish and sample from oven. Place dish and popcorn polymer sample in a desiccator. Cool for 1 hour and record the weight of the popcorn polymer. The weight of new polymer growth can be obtained by subtracting the original seed weight from the total popcom polymer weight.

Structure (SMILES) | %Inhibition (Table II) [%] | Polymer formed mg/15ml (Table II) [mg/15ml] | %Inhibition (Table III) [%] | Polymer formed mg/15ml (Table III) [mg/15ml]
CC1(C)CCCC(C)(C)N1[O] [compound 7, 2,2,6,6-tetramethyl-1-piperidinyloxyl] | 50 | 550 | 83 | 80
CC(C)(C)c1cc(O)ccc1O [compound 8, tert-butyl hydroquinone] | 30 | 770 |  | 
COc1cc(C(C)(C)C)c(O)c(C(C)(C)C)c1 [compound 19, 2,6-di-tert-butyl-4-methoxyphenol] |  |  | 77 | 108
